Consider four compounds from patent publication US12252524B2, “GIP/GLP1 co-agonist compounds” (Eli Lilly and Company, priority 2018, dated 2025).

Numbered stars: 1 amine (or outer) side, 2 acyl side, 3 side chain; on linkers, the order of the positions; unused ones are H or OH. Square brackets hold non-standard residues; d marks the D form. Side chains are listed from the residue outwards. Peptide text beside a SMILES is read from it. * marks the point of attachment. Ala(1H-tetrazol-5-yl) = N[C@@H](Cc1nnn[nH]1)C(=O)O; C20 diacid = O=C(O)CCCCCCCCCCCCCCCCCCC(=O)*; γGlu = O=C(O)[C@H](CCC(=O)[*:2])N[*:1]; αMeF = C[C@](N)(Cc1ccccc1)C(=O)O; αMeL = CC(C)C[C@](C)(N)C(=O)O; AEEA = NCCOCCOCC(=O)O; Aib = CC(C)(N)C(=O)O

Assay [1] concerns the target T1, gastric inhibitory peptide receptor (GIPR) (Homo sapiens, UniProt P48546).
T1 sequence (P48546 22-466): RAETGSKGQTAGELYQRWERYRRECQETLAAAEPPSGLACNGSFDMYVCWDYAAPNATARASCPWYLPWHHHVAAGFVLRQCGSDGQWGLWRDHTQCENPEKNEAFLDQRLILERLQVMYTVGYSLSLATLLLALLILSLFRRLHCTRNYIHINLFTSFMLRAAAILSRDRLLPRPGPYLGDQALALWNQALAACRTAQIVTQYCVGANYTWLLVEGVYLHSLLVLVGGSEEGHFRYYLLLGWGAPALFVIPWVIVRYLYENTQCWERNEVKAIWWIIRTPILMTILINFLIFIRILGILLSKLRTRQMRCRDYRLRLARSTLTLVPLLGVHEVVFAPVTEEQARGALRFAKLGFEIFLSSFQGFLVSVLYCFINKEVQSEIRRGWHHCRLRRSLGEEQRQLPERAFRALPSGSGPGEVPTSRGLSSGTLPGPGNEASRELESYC
The assay can be described thus: cAMP pharmacological functional assay in presence of casein, hGIPR. In kind it is cell-based. The settings on record: HEK293 cells expressing hGIPR, 0.1% Casein, geometric mean; read-out: hGIPR cAMP Rel EC50 nM (SEM, n).

Another assay addresses T2, human GIP receptor (Homo sapiens, UniProt P48546).
T2 construct: expressed in transfected cells; crude membranes
T2 sequence (P48546 22-466): T1 sequence (P48546 22-466)
The assay can be described thus: [125I]-GIP binding (SPA), human GIP receptor. The settings on record: read-out: hGIPR Ki, nM (SEM, n).

The target of assay [2] is human GLP-1 receptor (GLP-1R) (Homo sapiens, UniProt P43220). The assay can be described thus: cAMP pharmacological functional assay in presence of casein, hGLP-1R. The class given is cell-based. The settings on record: HEK293 cells expressing hGLP-1R, 0.1% Casein, geometric mean; read-out: hGLP1R cAMP Rel EC50 nM (SEM, n).
Chain of human GLP-1 receptor (GLP-1R) (P43220 24-463): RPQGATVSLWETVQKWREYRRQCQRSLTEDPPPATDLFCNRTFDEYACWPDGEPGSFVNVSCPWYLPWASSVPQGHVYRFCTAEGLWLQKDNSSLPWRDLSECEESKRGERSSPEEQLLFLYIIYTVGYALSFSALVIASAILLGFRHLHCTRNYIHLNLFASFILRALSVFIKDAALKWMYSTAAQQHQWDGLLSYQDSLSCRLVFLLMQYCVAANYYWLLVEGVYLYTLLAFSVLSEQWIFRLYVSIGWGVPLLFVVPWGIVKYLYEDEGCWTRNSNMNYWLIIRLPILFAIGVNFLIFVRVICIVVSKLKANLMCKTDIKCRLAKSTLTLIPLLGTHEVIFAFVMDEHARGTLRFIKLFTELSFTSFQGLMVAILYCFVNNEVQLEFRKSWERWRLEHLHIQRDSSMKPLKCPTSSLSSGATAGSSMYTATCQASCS
The target of the next assay is human GLP-1R (Homo sapiens, UniProt P43220). Put plainly: [125I]-GLP-1 binding (SPA), human GLP-1 receptor. Also on record: expressed in transfected cells; crude membranes. The settings on record: read-out: hGLP1R Ki, (nM) (SEM, n). The procedure, abridged: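 Assay buffer: HEPES 25 mM, pH 7.4, CaCl2 2.5 mM, MgCl2 1 mM, with EDTA-free protease inhibitors. Receptor came from crude cell membranes prepared by homogenization and centrifugation at 4° C. IC50s came from four-parameter fits (maximum, minimum, IC50, Hill slope) and were expressed as Ki geometric means with SEM.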
Chain of human GLP-1R (P43220 24-463): as above

The next assay concerns the target T3, human Gcg receptor (Homo sapiens, UniProt P47871).
T3 construct: expressed in transfected cells; crude membranes
Put plainly: [125I]-Glucagon binding (SPA), human Gcg receptor. Particulars: read-out: hGLcgR Ki, nM (SEM, n). The procedure, abridged: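 Crude membranes from cells expressing the receptor, prepared by hypotonic lysis in 50 mM Tris HCl pH 7.5 with protease inhibitors, homogenization and differential centrifugation, were used in a WGA-bead SPA. Binding buffer: 25 mM HEPES pH 7.4, 2.5 mM CaCl2, 1 mM MgCl2, bacitracin, Tween-20.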

T3 sequence (P47871 26-477): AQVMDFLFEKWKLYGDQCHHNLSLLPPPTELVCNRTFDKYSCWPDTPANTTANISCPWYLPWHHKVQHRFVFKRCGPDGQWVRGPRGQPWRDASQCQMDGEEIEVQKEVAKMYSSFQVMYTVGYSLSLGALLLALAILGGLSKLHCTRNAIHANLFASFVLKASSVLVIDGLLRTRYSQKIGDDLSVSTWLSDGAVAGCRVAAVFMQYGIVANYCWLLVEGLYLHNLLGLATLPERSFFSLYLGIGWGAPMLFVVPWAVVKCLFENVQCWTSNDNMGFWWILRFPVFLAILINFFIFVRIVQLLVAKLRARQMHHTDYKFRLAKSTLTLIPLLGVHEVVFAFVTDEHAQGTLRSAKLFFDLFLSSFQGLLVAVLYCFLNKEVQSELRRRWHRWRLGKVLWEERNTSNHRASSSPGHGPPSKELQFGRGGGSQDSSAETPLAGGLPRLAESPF

As for `CC[C@H](C)[C@H](NC(=O)[C@H](CC(C)C)NC(=O)[C@H](Cc1ccc(O)cc1)NC(=O)[C@H](CCC(=O)O)NC(=O)[C@@H](NC(=O)[C@H](Cc1ccccc1)NC(=O)[C@H](C)NC(=O)C(C)(C)NC(=O)[C@H](CCC(N)=O)NC(=O)[C@H](C)NC(=O)[C@H](CCCCNC(=O)COCCOCCNC(=O)COCCOCCNC(=O)CC[C@H](NC(=O)CCCCCCCCCCCCCCCCCCC(=O)O)C(=O)O)NC(=O)[C@H](CCC(=O)O)NC(=O)[C@H](CC(=O)O)NC(=O)[C@H](CC(C)C)NC(=O)[C@](C)(CC(C)C)NC(=O)[C@@H](NC(=O)[C@H](CO)NC(=O)[C@H](Cc1ccc(O)cc1)NC(=O)[C@H](CC(=O)O)NC(=O)[C@H](CO)NC(=O)[C@@H](NC(=O)[C@](C)(Cc1ccccc1)NC(=O)[C@@H](NC(=O)CNC(=O)[C@H](CCC(=O)O)NC(=O)C(C)(C)NC(=O)[C@@H](N)Cc1ccccc1)[C@@H](C)O)[C@@H](C)O)[C@@H](C)CC)[C@@H](C)CC)C(=O)N[C@@H](CCC(=O)O)C(=O)NCC(=O)NCC(=O)N1CCC[C@H]1C(=O)N[C@@H](CO)C(=O)N[C@@H](CO)C(=O)NCC(=O)N[C@@H](C)C(=O)N1CCC[C@H]1C(=O)N1CCC[C@H]1C(=O)N1CCC[C@H]1C(=O)N[C@@H](CO)C(N)=O` [Example 119] (H-F[Aib]EGT[αMeF]TSDYSI[αMeL]LDEK([AEEA-AEEA-γGlu-C20 diacid])AQ[Aib]AFIEYLIEGGPSSGAPPPS-NH2), the concentration giving a half-maximal response (EC50) in assay [1] was 0.216 nM; in assay [2], 0.0913 nM. The Ki on human GIP receptor stood at 0.0925 nM; on human GLP-1R, 9.87 nM; at human Gcg receptor, 30.6 nM.

As for `CC[C@H](C)[C@H](NC(=O)[C@H](CC(C)C)NC(=O)[C@H](Cc1ccc(O)cc1)NC(=O)[C@H](CCC(=O)O)NC(=O)[C@@H](NC(=O)[C@H](Cc1ccccc1)NC(=O)[C@H](C)NC(=O)C(C)(C)NC(=O)[C@H](CCC(N)=O)NC(=O)[C@H](C)NC(=O)[C@H](CCCCNC(=O)COCCOCCNC(=O)COCCOCCNC(=O)CC[C@H](NC(=O)CCCCCCCCCCCCCCCCCCC(=O)O)C(=O)O)NC(=O)[C@H](CCC(=O)O)NC(=O)[C@H](CC(=O)O)NC(=O)[C@H](CC(C)C)NC(=O)[C@](C)(CC(C)C)NC(=O)[C@@H](NC(=O)[C@H](CO)NC(=O)[C@H](Cc1ccc(O)cc1)NC(=O)[C@H](CC(=O)O)NC(=O)[C@H](CO)NC(=O)[C@@H](NC(=O)[C@](C)(Cc1ccccc1)NC(=O)[C@@H](NC(=O)CNC(=O)[C@H](Cc1nn[nH]n1)NC(=O)C(C)(C)NC(=O)[C@@H](N)Cc1ccc(O)cc1)[C@@H](C)O)[C@@H](C)O)[C@@H](C)CC)[C@@H](C)CC)C(=O)N[C@@H](CCC(=O)O)C(=O)NCC(=O)NCC(=O)N1CCC[C@H]1C(=O)N[C@@H](CO)C(=O)N[C@@H](CO)C(=O)NCC(=O)N[C@@H](C)C(=O)N1CCC[C@H]1C(=O)N1CCC[C@H]1C(=O)N1CCC[C@H]1C(=O)N[C@@H](CO)C(N)=O` [Example 120] (H-Y[Aib][Ala(1H-tetrazol-5-yl)]GT[αMeF]TSDYSI[αMeL]LDEK([AEEA-AEEA-γGlu-C20 diacid])AQ[Aib]AFIEYLIEGGPSSGAPPPS-NH2; N-terminus assumed), the figures for the EC50 in assay [1] and in assay [2] were 0.122 nM and 0.201 nM, respectively. Further, the Ki came out at 0.11 nM at human GIP receptor, 11.7 nM at human GLP-1R and 93.6 nM on human Gcg receptor.

For the compound `CC[C@H](C)[C@H](NC(=O)[C@H](CC(C)C)NC(=O)[C@H](Cc1ccc(O)cc1)NC(=O)[C@H](CCC(=O)O)NC(=O)[C@@H](NC(=O)[C@H](Cc1ccccc1)NC(=O)[C@H](C)NC(=O)[C@H](CCC(N)=O)NC(=O)[C@H](CCC(N)=O)NC(=O)[C@H](C)NC(=O)[C@H](CCCCNC(=O)COCCOCCNC(=O)COCCOCCNC(=O)CC[C@H](NC(=O)CCCCCCCCCCCCCCCCCCC(=O)O)C(=O)O)NC(=O)[C@H](CCC(=O)O)NC(=O)[C@H](CC(=O)O)NC(=O)[C@H](CC(C)C)NC(=O)[C@](C)(CC(C)C)NC(=O)[C@@H](NC(=O)[C@H](CO)NC(=O)[C@H](Cc1ccc(O)cc1)NC(=O)[C@H](CC(=O)O)NC(=O)[C@H](CO)NC(=O)[C@@H](NC(=O)[C@](C)(Cc1ccccc1)NC(=O)[C@@H](NC(=O)CNC(=O)[C@H](CCC(=O)O)NC(=O)C(C)(C)NC(=O)[C@@H](N)Cc1ccc(O)cc1)[C@@H](C)O)[C@@H](C)O)[C@@H](C)CC)[C@@H](C)CC)C(=O)N[C@@H](CCC(=O)O)C(=O)NCC(=O)NCC(=O)N1CCC[C@H]1C(=O)N[C@@H](CO)C(=O)N[C@@H](CO)C(=O)NCC(=O)N[C@@H](C)C(=O)N1CCC[C@H]1C(=O)N1CCC[C@H]1C(=O)N1CCC[C@H]1C(=O)N[C@@H](CO)C(N)=O` [Example 121] (H-Y[Aib]EGT[αMeF]TSDYSI[αMeL]LDEK([AEEA-AEEA-γGlu-C20 diacid])AQQAFIEYLIEGGPSSGAPPPS-NH2), the results for the EC50 in assay [1] and in assay [2] were 0.076 nM and 0.0849 nM, respectively. Further, the Ki on human GIP receptor is 0.177 nM; on human GLP-1R, 3.16 nM; on human Gcg receptor it was 51.9 nM.

As for `CC[C@H](C)[C@H](NC(=O)[C@H](Cc1ccccc1)NC(=O)[C@H](C)NC(=O)[C@H](CCC(N)=O)NC(=O)[C@H](CCC(N)=O)NC(=O)[C@H](C)NC(=O)[C@H](CCCCNC(=O)COCCOCCNC(=O)COCCOCCNC(=O)CC[C@H](NC(=O)CCCCCCCCCCCCCCCCCCC(=O)O)C(=O)O)NC(=O)[C@H](CCC(=O)O)NC(=O)[C@H](CC(=O)O)NC(=O)[C@H](CC(C)C)NC(=O)[C@](C)(CC(C)C)NC(=O)[C@@H](NC(=O)[C@H](CO)NC(=O)[C@H](Cc1ccc(O)cc1)NC(=O)[C@H](CC(=O)O)NC(=O)[C@H](CO)NC(=O)[C@@H](NC(=O)[C@](C)(Cc1ccccc1)NC(=O)[C@@H](NC(=O)CNC(=O)[C@H](CCC(=O)O)NC(=O)C(C)(C)NC(=O)[C@@H](N)Cc1ccc(O)cc1)[C@@H](C)O)[C@@H](C)O)[C@@H](C)CC)C(=O)N[C@@H](CCC(=O)O)C(=O)N[C@@H](Cc1ccc(O)cc1)C(=O)N[C@@H](CC(C)C)C(=O)N[C@H](C(=O)N[C@@H](CCC(=O)O)C(=O)NC(C)(C)C(=O)NCC(=O)N1CCC[C@H]1C(=O)N[C@@H](CO)C(=O)N[C@@H](CO)C(=O)NCC(=O)N[C@@H](C)C(=O)N1CCC[C@H]1C(=O)N1CCC[C@H]1C(=O)N1CCC[C@H]1C(=O)N[C@@H](CO)C(N)=O)[C@@H](C)CC` [Example 122] (H-Y[Aib]EGT[αMeF]TSDYSI[αMeL]LDEK([AEEA-AEEA-γGlu-C20 diacid])AQQAFIEYLIE[Aib]GPSSGAPPPS-NH2), the figures for the 50% effective concentration (EC50) in assay [1] and in assay [2] were 0.0923 nM and 0.076 nM, respectively. Further, the inhibitory constant (Ki) was determined as 0.19 nM on human GIP receptor, 3.36 nM on human GLP-1R and 43.3 nM on human Gcg receptor.

In general, EC50 refers to the concentration at which the effect is half-maximal. A word on the Ki: it is the dissociation constant of the complex between target and ligand, obtained from inhibition or displacement.
